Test results reported in patent publication US4228176A, “Thromboxane inhibition with burimamide” (Nelson Research & Development Company, priority 1979, dated 1980).
Where two headings read alike, the source gives them in different places.

Columns and labels:
Thromboxane Synthetase [1] = details: cited from earlier work
Thromboxane Biosynthesis = test: Inhibition of thromboxane biosynthesis; type: biochemical; parameters: % Inhibition of Thromboxane Biosynthesis: unit of the concentration uncertain; details: for % INHIBITION (Inhibition of Thromboxane Biosynthesis): concentration of 100 mg/ml (Table 2)
Description: A comparison of the inhibition of thromboxane biosynthesis between imidazole and Burimamide was made.
A number of structurally related compounds including other H2 blockers were compared for inhibition of thromboxane activity.

H2-receptor = details: cited from earlier work
[2] = tested on: histamineinduced gastric acid secretion; details: cited from earlier work
Thromboxane Synthetase [3] = details: human platelets; cited from earlier work
[4] = concentration 0.5 (unit uncertain)
[5] = concentration 1 (unit uncertain)
[6] = concentration 2 (unit uncertain)
[7] = concentration 5 (unit uncertain)
[8] = concentration 10 (unit uncertain)
[9] = concentration 20 (unit uncertain)
[10] = concentration 50 (unit uncertain)

For Cn1ccnc1 [1-methyl imidazole], the “inhibition of thromboxane biosynthesis, in words” value (Thromboxane Synthetase [1]) is listed as “potent inhibitor of thromboxane biosynthesis”.

For CN(C)CCCSC(=N)N [Dimaprit], the “% INHIBITION (Inhibition of Thromboxane Biosynthesis)” value (Thromboxane Biosynthesis) was 35%.

With CC(=O)N[C@@H](Cc1c[nH]cn1)C(=O)O [N-acetyl Histidine] the “% INHIBITION (Inhibition of Thromboxane Biosynthesis)” value (Thromboxane Biosynthesis) was 0%.

In the case of NCCc1nccs1 [2-(2-thiazolyl) Ethylamine], the “% INHIBITION (Inhibition of Thromboxane Biosynthesis)” value (Thromboxane Biosynthesis) is reported as 19%.

With CNC(=S)NCCCCc1c[nH]cn1 [Burimamide, N-methyl-N'-[4-(imidazole-4-yl)butyl] thiourea] the “thromboxane biosynthesis inhibition, in words” value (Thromboxane Biosynthesis) was “potent, selective blocker of thromboxane biosynthesis”, the “% Inhibition of Thromboxane Biosynthesis” value (Thromboxane Biosynthesis; concentration 100 mg/ml (Table 1)) was 98% and the “% Inhibition of Thromboxane Biosynthesis” value (Thromboxane Biosynthesis; [4]) was 15%. The “% Inhibition of Thromboxane Biosynthesis” value (Thromboxane Biosynthesis; [5]) was 21%, the “% Inhibition of Thromboxane Biosynthesis” value (Thromboxane Biosynthesis; [6]) was 36% and the “% Inhibition of Thromboxane Biosynthesis” value (Thromboxane Biosynthesis; [7]) was 47%. The “% Inhibition of Thromboxane Biosynthesis” value (Thromboxane Biosynthesis; [8]) was 58%, the “% Inhibition of Thromboxane Biosynthesis” value (Thromboxane Biosynthesis; [9]) was 73% and the “% Inhibition of Thromboxane Biosynthesis” value (Thromboxane Biosynthesis; [10]) was 86%. For the same molecule, the “% INHIBITION (Inhibition of Thromboxane Biosynthesis)” value (Thromboxane Biosynthesis) was 100%, the “pharmacologic activity at H2-receptor, in words” value (H2-receptor) was “H2 -receptor blocker” and the “histamine-induced gastric acid secretion, in words” value [2] was “inhibit histamineinduced gastric acid secretion”.

In the case of CNC(=NC#N)NCCSCc1[nH]cnc1C [Cimetidine], the “thromboxane biosynthesis inhibition, in words” value (Thromboxane Biosynthesis) is reported as “only minor thromboxane inhibitory activity” and the “% INHIBITION (Inhibition of Thromboxane Biosynthesis)” value (Thromboxane Biosynthesis) is reported as 19%.

With N[C@@H](Cc1c[nH]cn1)C(=O)O [L-Histidine] the “% INHIBITION (Inhibition of Thromboxane Biosynthesis)” value (Thromboxane Biosynthesis) was 17%.

With Clc1cccc(Cl)c1NC1=NCCN1 [Clonidine] the “% INHIBITION (Inhibition of Thromboxane Biosynthesis)” value (Thromboxane Biosynthesis) was 0%.

For c1c[nH]cn1 [Imidazole], the “thromboxane biosynthesis inhibition, in words” value (Thromboxane Biosynthesis) was “only compound comparable in inhibition of thromboxane biosynthesis”, the “% Inhibition of Thromboxane Biosynthesis” value (Thromboxane Biosynthesis; [4]) was 0% and the “% Inhibition of Thromboxane Biosynthesis” value (Thromboxane Biosynthesis; [5]) was 25%. For the same molecule, the “% Inhibition of Thromboxane Biosynthesis” value (Thromboxane Biosynthesis; [6]) was 53%, the “% Inhibition of Thromboxane Biosynthesis” value (Thromboxane Biosynthesis; [7]) was 68% and the “% Inhibition of Thromboxane Biosynthesis” value (Thromboxane Biosynthesis; [8]) was 81%. For the same molecule, the “% Inhibition of Thromboxane Biosynthesis” value (Thromboxane Biosynthesis; [9]) was 89%, the “% Inhibition of Thromboxane Biosynthesis” value (Thromboxane Biosynthesis; [10]) was 88% and the “inhibition of thromboxane biosynthesis, in words” value (Thromboxane Synthetase [3]) was “selective inhibitor of thromboxane biosynthesis”.

In the case of CC(=O)NCCc1c[nH]cn1 [N-acetyl Histamine], the “% INHIBITION (Inhibition of Thromboxane Biosynthesis)” value (Thromboxane Biosynthesis) is reported as 26%.

In the case of CNC(=S)NCCSCc1[nH]cnc1C [Metiamide], the “thromboxane biosynthesis inhibition, in words” value (Thromboxane Biosynthesis) is reported as “only minor thromboxane inhibitory activity” and the “% INHIBITION (Inhibition of Thromboxane Biosynthesis)” value (Thromboxane Biosynthesis) is reported as 33%.

For NCCc1c[nH]cn1 [Histamine], the “% INHIBITION (Inhibition of Thromboxane Biosynthesis)” value (Thromboxane Biosynthesis) was 17%.

With Cc1[nH]cnc1CCN [4-Methylhistamine] the “% INHIBITION (Inhibition of Thromboxane Biosynthesis)” value (Thromboxane Biosynthesis) was 0%.

For NCCc1ccccn1 [2-(2-pyridyl) Ethylamine], the “% INHIBITION (Inhibition of Thromboxane Biosynthesis)” value (Thromboxane Biosynthesis) was 20%.

With c1ccc([C@H]2CN3CCSC3=N2)cc1 [Levamisole] the “% INHIBITION (Inhibition of Thromboxane Biosynthesis)” value (Thromboxane Biosynthesis) was 6%.
